In general, EC50 refers to the concentration giving half of the maximal effect. High values mean weaker potency, low ones greater potency.

22 molecules from ChEMBL document CHEMBL4130561, “Design and Synthesis of N1-Modified Imidazoquinoline Agonists for Selective Activation of Toll-like Receptors 7 and 8” (ACS Med Chem Lett, 2017) can be followed below.

Activity calls are given as the source filed them. The calls are words filed in the database; no cut-off is given here.

Test [1] deals with PBMC. In words: Immunostimulatory activity in human PBMC assessed as increase in TNFalpha levels at 12.5 uM after 24 hrs by ELISA. Format: functional, cell-based. For orientation: In an ELISA, binding on a coated surface is turned into a signal by an enzyme label.
The target in test [2] is T1, Toll-like receptor 8 (Homo sapiens) (UniProt Q9NR97).
T1 sequence (whole entry): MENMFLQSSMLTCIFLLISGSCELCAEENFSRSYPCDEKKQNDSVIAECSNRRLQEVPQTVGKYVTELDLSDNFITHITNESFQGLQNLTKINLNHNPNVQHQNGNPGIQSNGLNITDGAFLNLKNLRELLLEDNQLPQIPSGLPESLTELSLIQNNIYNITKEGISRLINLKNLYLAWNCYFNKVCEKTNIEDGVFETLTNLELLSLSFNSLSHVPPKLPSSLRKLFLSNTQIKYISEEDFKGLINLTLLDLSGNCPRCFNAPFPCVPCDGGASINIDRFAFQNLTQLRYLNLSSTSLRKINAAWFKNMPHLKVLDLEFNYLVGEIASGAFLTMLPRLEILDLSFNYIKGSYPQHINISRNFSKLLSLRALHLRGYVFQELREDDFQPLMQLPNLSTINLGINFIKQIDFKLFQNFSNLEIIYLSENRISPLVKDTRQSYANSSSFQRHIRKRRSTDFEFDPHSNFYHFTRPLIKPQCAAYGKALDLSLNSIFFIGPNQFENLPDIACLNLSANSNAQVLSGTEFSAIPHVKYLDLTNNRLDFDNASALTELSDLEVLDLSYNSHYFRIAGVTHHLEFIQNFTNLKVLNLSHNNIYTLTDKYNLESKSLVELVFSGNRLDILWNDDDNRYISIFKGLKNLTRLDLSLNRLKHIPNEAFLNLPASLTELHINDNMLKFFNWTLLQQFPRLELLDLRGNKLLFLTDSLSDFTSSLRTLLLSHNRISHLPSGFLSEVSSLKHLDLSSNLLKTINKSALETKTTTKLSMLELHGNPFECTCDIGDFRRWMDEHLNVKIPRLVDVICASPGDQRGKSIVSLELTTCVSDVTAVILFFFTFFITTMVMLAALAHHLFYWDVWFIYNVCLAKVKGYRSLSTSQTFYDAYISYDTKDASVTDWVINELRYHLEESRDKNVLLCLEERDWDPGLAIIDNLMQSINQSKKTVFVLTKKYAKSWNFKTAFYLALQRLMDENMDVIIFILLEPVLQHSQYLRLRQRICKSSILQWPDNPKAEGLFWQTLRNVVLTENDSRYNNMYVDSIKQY
In words: Agonist activity at human TLR8 expressed in HEK cells at 180 uM after 8 to 12 hrs by NFkappaB/SEAP reporter gene assay. The class given is cell-based.

The target in the next test is T2, Toll-like receptor 7 (Homo sapiens, UniProt Q9NYK1).
T2 sequence (Q9NYK1 whole entry): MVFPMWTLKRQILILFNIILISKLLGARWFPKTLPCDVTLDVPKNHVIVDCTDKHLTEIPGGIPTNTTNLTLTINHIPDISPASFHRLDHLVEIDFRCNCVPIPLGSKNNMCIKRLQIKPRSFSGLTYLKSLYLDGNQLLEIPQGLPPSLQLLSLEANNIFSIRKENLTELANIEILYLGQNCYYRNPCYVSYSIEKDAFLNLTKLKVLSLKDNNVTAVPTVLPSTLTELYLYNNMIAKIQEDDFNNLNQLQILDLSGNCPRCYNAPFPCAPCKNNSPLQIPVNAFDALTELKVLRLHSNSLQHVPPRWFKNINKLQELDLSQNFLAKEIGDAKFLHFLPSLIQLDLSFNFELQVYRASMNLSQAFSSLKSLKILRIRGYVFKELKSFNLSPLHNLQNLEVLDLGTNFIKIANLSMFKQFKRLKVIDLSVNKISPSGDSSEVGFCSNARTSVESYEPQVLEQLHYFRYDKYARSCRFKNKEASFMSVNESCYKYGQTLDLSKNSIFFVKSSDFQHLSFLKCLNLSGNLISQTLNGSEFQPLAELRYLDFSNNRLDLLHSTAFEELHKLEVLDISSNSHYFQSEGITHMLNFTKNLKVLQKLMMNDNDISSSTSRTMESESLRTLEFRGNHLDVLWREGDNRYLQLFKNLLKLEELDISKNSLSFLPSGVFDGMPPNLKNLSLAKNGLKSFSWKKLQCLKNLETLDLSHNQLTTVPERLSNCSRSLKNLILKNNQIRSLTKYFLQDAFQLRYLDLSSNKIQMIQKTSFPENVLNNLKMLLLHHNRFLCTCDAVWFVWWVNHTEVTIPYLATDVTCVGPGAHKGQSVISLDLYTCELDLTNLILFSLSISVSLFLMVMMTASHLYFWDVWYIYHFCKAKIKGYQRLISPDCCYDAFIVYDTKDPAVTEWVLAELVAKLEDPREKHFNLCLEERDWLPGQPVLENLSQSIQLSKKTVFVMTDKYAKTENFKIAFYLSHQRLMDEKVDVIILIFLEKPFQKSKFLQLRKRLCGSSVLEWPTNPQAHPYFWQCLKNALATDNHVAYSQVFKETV
Briefly: Agonist activity at human TLR7 expressed in HEK cells after 8 to 12 hrs by NFkappaB/SEAP reporter gene assay. The class given is cell-based.

Test [3] concerns PBMC. Briefly: Immunostimulatory activity in human PBMC assessed as increase in IL-1beta levels at 1 uM after 24 hrs by ELISA. Format: functional, cell-based.
The test system of test [4] is PBMC. In words: Immunostimulatory activity in human PBMC assessed as increase in IFNgamma levels at 1 uM after 24 hrs by ELISA. The class given is functional, cell-based.
In test [5] the test system is PBMC. Briefly: Immunostimulatory activity in human PBMC assessed as increase in TNFalpha levels at 1 uM after 24 hrs by ELISA. The class given is functional, cell-based.
For test [6], the target named is T3, Toll-like receptor 7 (Homo sapiens) (UniProt Q9NYK1).
T3 sequence (whole entry): T2 sequence (Q9NYK1 whole entry)
In words: Agonist activity at human TLR7 expressed in HEK cells at 180 uM after 8 to 12 hrs by NFkappaB/SEAP reporter gene assay. Format: cell-based. (In general: In a reporter assay the amount or activity of a reporter protein is the signal.)

The next test addresses T4, Toll-like receptor 8 (Homo sapiens, UniProt Q9NR97).
T4 sequence (Q9NR97 whole entry): T1 sequence (whole entry)
In words: Agonist activity at human TLR8 expressed in HEK cells after 8 to 12 hrs by NFkappaB/SEAP reporter gene assay. The class given is cell-based.

The subject of test [7] is PBMC. In words: Immunostimulatory activity in human PBMC assessed as increase in IL-1beta levels at 12.5 uM after 24 hrs by ELISA. Format: functional, cell-based.
The test system of test [8] is PBMC. Briefly: Immunostimulatory activity in human PBMC assessed as increase in IL-12p70 levels at 12.5 uM after 24 hrs by ELISA. Format: functional, cell-based.
Test [9] deals with PBMC. In words: Immunostimulatory activity in human PBMC assessed as increase in IFNgamma levels at 12.5 uM after 24 hrs by ELISA. The class given is functional, cell-based.
Test [10] deals with PBMC. Briefly: Immunostimulatory activity in human PBMC assessed as increase in IL-12p70 levels at 0.39 to 50 uM after 24 hrs by ELISA. Format: functional, cell-based.
In test [11] the test system is PBMC. In words: Immunostimulatory activity in human PBMC assessed as increase in IL-1beta levels at 0.39 to 50 uM after 24 hrs by ELISA. The class given is functional, cell-based.
Test [12] has as its system PBMC. In words: Immunostimulatory activity in human PBMC assessed as increase in IFNgamma levels at 0.39 to 50 uM after 24 hrs by ELISA. The class given is functional, cell-based.
In test [13] the test system is PBMC. In words: Immunostimulatory activity in human PBMC assessed as increase in TNFalpha levels at 0.39 to 50 uM after 24 hrs by ELISA. Format: functional, cell-based.

As for `CCCCc1nc2c(N)nc3cc(C(=O)OC)ccc3c2n1Cc1ccc(CN)cc1`, in the test with PBMC [1], the result was Active. For the molecule `CCCCc1nc2c(N)nc3cc(C(=O)OC)ccc3c2n1CC(=O)OC`, the outcome in test [2] was inactive.

For `CCCCc1nc2c(N)nc3cc(C(=O)OC)ccc3c2n1CCCCO`, the EC50 on Toll-like receptor 7 is 3.21 µM. The result in test [2] was inactive.

Take `CCCCc1nc2c(N)nc3cc(C(=O)OC)ccc3c2n1CCCCCC(=O)OC`: in [2], the outcome was inactive.

With `CCCCc1nc2c(N)nc3cc(C(=O)OC)ccc3c2n1CCCO`, the EC50 at Toll-like receptor 7 worked out at 1.72 µM. Besides, the outcome in test [2] was inactive. In the case of `CCCCc1nc2c(N)nc3cc(C(=O)OC)ccc3c2n1CCSC`, in [2], the result was inactive. Further, the result in the test on PBMC [3], with PBMC [4] and in the test with PBMC [5] was Active. `CCCCc1nc2c(N)nc3cc(C(=O)OC)ccc3c2n1Cc1ccc(C(=O)O)cc1`: in test [2], the result was inactive. Regarding `CCCCc1nc2c(N)nc3cc(C(=O)OC)ccc3c2n1CCCCN`, in test [6], the result was inactive. For the molecule `CCCCc1nc2c(N)nc3cc(C(=O)OC)ccc3c2n1CCCC(=O)OC`, in test [2], the outcome was inactive. Regarding `CCCCc1nc2c(N)nc3cc(C(=O)OC)ccc3c2n1CC(C)OC(C)=O` (configuration not stated), the EC50 on Toll-like receptor 7 was 3.06 µM. Further, the outcome in test [2] was inactive.

As for `CCCCc1nc2c(N)nc3cc(C(=O)OC)ccc3c2n1CCCN`, in [6], the result was inactive. The response on Toll-like receptor 8 was half-maximal at 26.7 µM (EC50).

For the molecule `CCCCc1nc2c(N)nc3cc(C(=O)OC)ccc3c2n1CCCCC(=O)O`, the outcome in test [6] and in test [2] was inactive. For `CCCCc1nc2c(N)nc3cc(C(=O)OC)ccc3c2n1CCc1ccc(C(=O)O)cc1`, the result in [6] and in test [2] was inactive.

As for `CCCCc1nc2c(N)nc3cc(C(=O)OC)ccc3c2n1CCCCC(=O)OC`, the result in [2] was inactive. Still for that read-out and setting: for `CCCCc1nc2c(N)nc3cc(C(=O)OC)ccc3c2n1CCC(=O)OC` the value was “inactive”. `CCCCc1nc2c(N)nc3cc(C(=O)OC)ccc3c2n1CCN`: the outcome in the test with PBMC [7], in the test with PBMC [8] and with PBMC [9] was Active. For the same molecule, the result in test [6] was inactive. Take `CCCCCCCC(=O)OC(C)Cn1c(CCCC)nc2c(N)nc3cc(C(=O)OC)ccc3c21` (configuration not stated): the outcome in [6] and in test [2] was inactive. In turn, `CC(C)Cn1cnc2c(N)nc3ccccc3c21` [IMIQUIMOD] displayed an EC50 on Toll-like receptor 7 of 11.4 µM. Moreover, the result (in test [2]; in the test with PBMC [10]; in the test on PBMC [11]; with PBMC [12]; with PBMC [13]) was inactive. Consider `CCCCc1nc2c(N)nc3cc(C(=O)OC)ccc3c2n1CC(C)(C)O`, for which the EC50 on Toll-like receptor 7 came out at 1.69 µM; at Toll-like receptor 8, 20.9 µM. The corresponding values for `CCCCc1nc2c(N)nc3cc(C(=O)OC)ccc3c2n1CCO` are 14.4 µM and 37 µM. As for `CCCCc1nc2c(N)nc3cc(C(=O)OC)ccc3c2n1CCCSC`, the result in [2] was inactive. On the same count and under the same terms, the same measure for `CCCCc1nc2c(N)nc3cc(C(=O)OC)ccc3c2n1CCSCC`: “inactive”.
